Columns and labels:
Experiment in all cases: relative viability (nuclei count vs DMSO), 5 days (fraction); higher = more cells survive
Alisertib = compound: COc1cc(Nc2ncc3c(n2)-c2ccc(Cl)cc2C(c2c(F)cccc2OC)=NC3)ccc1C(=O)O [Alisertib]
Outline: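 MetaXpress counted nuclei in 4× images of lung cancer cell lines that had been fixed, permeabilised and Hoechst-stained in one step. Before that, cells in 1536-well plates were kept overnight at 37 °C, pinned with five √10-spaced library-drug doses on vehicle-anchored plates, and cultured 5 days without medium change. Viability takes treated-well nuclei over vehicle-well nuclei and uses the median across plates. Plates were accepted only at control CV below 25% and at least one doubling.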

Alisertib + Foretinib = compound: COc1cc(Nc2ncc3c(n2)-c2ccc(Cl)cc2C(c2c(F)cccc2OC)=NC3)ccc1C(=O)O [Alisertib] + COc1cc2c(Oc3ccc(NC(=O)C4(C(=O)Nc5ccc(F)cc5)CC4)cc3F)ccnc2cc1OCCCN1CCOCC1 [Foretinib] (partner 0.25 µM)
Outline: (§1)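 Relative viability was taken as the ratio of nuclei in treated wells to nuclei in vehicle wells. Lung cancer cell lines in 1536-well plates received compounds by pin tool one day after seeding, either one drug alone or a fixed anchor-drug dose plus five library-drug doses (not always all listed) in √10 steps. Nuclei were counted on 4× images after 5 days of treatment, and values are medians of duplicate plates.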

Alisertib + Palbociclib = compound: COc1cc(Nc2ncc3c(n2)-c2ccc(Cl)cc2C(c2c(F)cccc2OC)=NC3)ccc1C(=O)O [Alisertib] + CC(=O)c1c(C)c2cnc(Nc3ccc(N4CCNCC4)cn3)nc2n(C2CCCC2)c1=O [Palbociclib] (partner 0.5 µM)
Outline: as §1

Alisertib + OSI-027 = compound: COc1cc(Nc2ncc3c(n2)-c2ccc(Cl)cc2C(c2c(F)cccc2OC)=NC3)ccc1C(=O)O [Alisertib] + COc1cccc2cc(-c3nc([C@H]4CC[C@H](C(=O)O)CC4)n4ncnc(N)c34)[nH]c12 [OSI-027] (partner 0.5 µM)
Outline: as §1

Cell Line: NCI-H2342
- relative viability (Alisertib; 0.005 µM): 0.812
- relative viability (Alisertib; 0.01581 µM): 0.978
- relative viability (Alisertib; 0.05 µM): 0.776
- relative viability (Alisertib; 0.1581 µM): 0.551
- relative viability (Alisertib; 0.5 µM): 0.42
- relative viability (Alisertib + Foretinib; first compound 0.005 µM): 1.04
- relative viability (Alisertib + Foretinib; first compound 0.01581 µM): 1.09
- relative viability (Alisertib + Foretinib; first compound 0.05 µM): 0.652
- relative viability (Alisertib + Foretinib; first compound 0.1581 µM): 0.464
- relative viability (Alisertib + Foretinib; first compound 0.5 µM): 0.363
- relative viability (Alisertib + Palbociclib; first compound 0.005 µM): 0.539
- relative viability (Alisertib + Palbociclib; first compound 0.01581 µM): 0.533
- relative viability (Alisertib + Palbociclib; first compound 0.05 µM): 0.509
- relative viability (Alisertib + Palbociclib; first compound 0.1581 µM): 0.348
- relative viability (Alisertib + Palbociclib; first compound 0.5 µM): 0.415
- relative viability (Alisertib + OSI-027; first compound 0.005 µM): 0.529
- relative viability (Alisertib + OSI-027; first compound 0.01581 µM): 0.643
- relative viability (Alisertib + OSI-027; first compound 0.05 µM): 0.589
- relative viability (Alisertib + OSI-027; first compound 0.1581 µM): 0.468
- relative viability (Alisertib + OSI-027; first compound 0.5 µM): 0.383

Cell Line: NCI-H2347
- relative viability (Alisertib; 0.005 µM): 1.01
- relative viability (Alisertib; 0.01581 µM): 0.906
- relative viability (Alisertib; 0.05 µM): 0.862
- relative viability (Alisertib; 0.1581 µM): 0.703
- relative viability (Alisertib; 0.5 µM): 0.428
- relative viability (Alisertib + Foretinib; first compound 0.005 µM): 0.733
- relative viability (Alisertib + Foretinib; first compound 0.01581 µM): 0.84
- relative viability (Alisertib + Foretinib; first compound 0.05 µM): 0.863
- relative viability (Alisertib + Foretinib; first compound 0.1581 µM): 0.454
- relative viability (Alisertib + Foretinib; first compound 0.5 µM): 0.459
- relative viability (Alisertib + Palbociclib; first compound 0.005 µM): 0.427
- relative viability (Alisertib + Palbociclib; first compound 0.01581 µM): 0.429
- relative viability (Alisertib + Palbociclib; first compound 0.05 µM): 0.438
- relative viability (Alisertib + Palbociclib; first compound 0.1581 µM): 0.387
- relative viability (Alisertib + Palbociclib; first compound 0.5 µM): 0.362
- relative viability (Alisertib + OSI-027; first compound 0.005 µM): 0.373
- relative viability (Alisertib + OSI-027; first compound 0.01581 µM): 0.346
- relative viability (Alisertib + OSI-027; first compound 0.05 µM): 0.373
- relative viability (Alisertib + OSI-027; first compound 0.1581 µM): 0.377
- relative viability (Alisertib + OSI-027; first compound 0.5 µM): 0.282

Cell Line: NCI-H2405
- relative viability (Alisertib; 0.005 µM): 0.952
- relative viability (Alisertib; 0.01581 µM): 0.967
- relative viability (Alisertib; 0.05 µM): 0.833
- relative viability (Alisertib; 0.1581 µM): 0.41
- relative viability (Alisertib; 0.5 µM): 0.282
- relative viability (Alisertib + Foretinib; first compound 0.005 µM): 1.02
- relative viability (Alisertib + Foretinib; first compound 0.01581 µM): 0.992
- relative viability (Alisertib + Foretinib; first compound 0.05 µM): 0.838
- relative viability (Alisertib + Foretinib; first compound 0.1581 µM): 0.371
- relative viability (Alisertib + Foretinib; first compound 0.5 µM): 0.286
- relative viability (Alisertib + Palbociclib; first compound 0.005 µM): 0.497
- relative viability (Alisertib + Palbociclib; first compound 0.01581 µM): 0.504
- relative viability (Alisertib + Palbociclib; first compound 0.05 µM): 0.495
- relative viability (Alisertib + Palbociclib; first compound 0.1581 µM): 0.317
- relative viability (Alisertib + Palbociclib; first compound 0.5 µM): 0.257
- relative viability (Alisertib + OSI-027; first compound 0.005 µM): 0.63
- relative viability (Alisertib + OSI-027; first compound 0.01581 µM): 0.666
- relative viability (Alisertib + OSI-027; first compound 0.05 µM): 0.592
- relative viability (Alisertib + OSI-027; first compound 0.1581 µM): 0.321
- relative viability (Alisertib + OSI-027; first compound 0.5 µM): 0.231

Cell Line: NCI-H3122
- relative viability (Alisertib; 0.005 µM): 0.943
- relative viability (Alisertib; 0.01581 µM): 0.977
- relative viability (Alisertib; 0.05 µM): 0.831
- relative viability (Alisertib; 0.1581 µM): 0.405
- relative viability (Alisertib; 0.5 µM): 0.295
- relative viability (Alisertib + Foretinib; first compound 0.005 µM): 0.9
- relative viability (Alisertib + Foretinib; first compound 0.01581 µM): 0.981
- relative viability (Alisertib + Foretinib; first compound 0.05 µM): 0.551
- relative viability (Alisertib + Foretinib; first compound 0.1581 µM): 0.384
- relative viability (Alisertib + Foretinib; first compound 0.5 µM): 0.191
- relative viability (Alisertib + Palbociclib; first compound 0.005 µM): 0.174
- relative viability (Alisertib + Palbociclib; first compound 0.01581 µM): 0.174
- relative viability (Alisertib + Palbociclib; first compound 0.05 µM): 0.215
- relative viability (Alisertib + Palbociclib; first compound 0.1581 µM): 0.139
- relative viability (Alisertib + Palbociclib; first compound 0.5 µM): 0.149
- relative viability (Alisertib + OSI-027; first compound 0.005 µM): 0.86
- relative viability (Alisertib + OSI-027; first compound 0.01581 µM): 0.754
- relative viability (Alisertib + OSI-027; first compound 0.05 µM): 0.599
- relative viability (Alisertib + OSI-027; first compound 0.1581 µM): 0.336
- relative viability (Alisertib + OSI-027; first compound 0.5 µM): 0.149

Cell Line: PC-3 [JPC-3]
- relative viability (Alisertib; 0.005 µM): 0.974
- relative viability (Alisertib; 0.01581 µM): 0.976
- relative viability (Alisertib; 0.05 µM): 0.932
- relative viability (Alisertib; 0.1581 µM): 0.48
- relative viability (Alisertib; 0.5 µM): 0.398
- relative viability (Alisertib + Foretinib; first compound 0.005 µM): 0.97
- relative viability (Alisertib + Foretinib; first compound 0.01581 µM): 0.868
- relative viability (Alisertib + Foretinib; first compound 0.05 µM): 0.706
- relative viability (Alisertib + Foretinib; first compound 0.1581 µM): 0.531
- relative viability (Alisertib + Foretinib; first compound 0.5 µM): 0.398
- relative viability (Alisertib + Palbociclib; first compound 0.005 µM): 0.537
- relative viability (Alisertib + Palbociclib; first compound 0.01581 µM): 0.53
- relative viability (Alisertib + Palbociclib; first compound 0.05 µM): 0.515
- relative viability (Alisertib + Palbociclib; first compound 0.1581 µM): 0.541
- relative viability (Alisertib + Palbociclib; first compound 0.5 µM): 0.513
- relative viability (Alisertib + OSI-027; first compound 0.005 µM): 0.784
- relative viability (Alisertib + OSI-027; first compound 0.01581 µM): 0.764
- relative viability (Alisertib + OSI-027; first compound 0.05 µM): 0.703
- relative viability (Alisertib + OSI-027; first compound 0.1581 µM): 0.407
- relative viability (Alisertib + OSI-027; first compound 0.5 µM): 0.306
